The assay deals with rat pituitary cells. The assay is classed as cell-based. Particulars: 3 h. The essentials: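 GH radioimmunoassay of medium after 3 h, 37° C incubation of cultured rat anterior pituitary cells with antagonist (6 doses) against 1 nM somatostatin in presence of 1 nM GRF(1-29)NH2; medium 199, 1% BSA, triplicates. IC50 derived by curve fit with top fixed at GRF-only control response.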

Positions of bridges follow the written chain, without caps; N, C: chain ends. Non-standard residues stand in square brackets, D forms with d. Residues, ends and D or L forms follow the SMILES beside them. Phe(4-NO2) = N[C@@H](Cc1ccc([N+](=O)[O-])cc1)C(=O)O; Tyr(3-I) = N[C@@H](Cc1ccc(O)c(I)c1)C(=O)O; dDip = N[C@@H](C(=O)O)C(c1ccccc1)c1ccccc1; Phe(4-Br) = N[C@@H](Cc1ccc(Br)cc1)C(=O)O; Phe(4-CN) = N#Cc1ccc(C[C@H](N)C(=O)O)cc1; Phe(4-Cl) = N[C@@H](Cc1ccc(Cl)cc1)C(=O)O; Dip = N[C@H](C(=O)O)C(c1ccccc1)c1ccccc1; Phe(3-F) = N[C@@H](Cc1cccc(F)c1)C(=O)O; Phe(4-F) = N[C@@H](Cc1ccc(F)cc1)C(=O)O; Phe(4-I) = N[C@@H](Cc1ccc(I)cc1)C(=O)O; dPhe(4-F) = N[C@H](Cc1ccc(F)cc1)C(=O)O; 2Nal = N[C@@H](Cc1ccc2ccccc2c1)C(=O)O; Phe(2-F) = N[C@@H](Cc1ccccc1F)C(=O)O; Bta = N[C@@H](Cc1csc2ccccc12)C(=O)O; Igl = N[C@H](C(=O)O)C1Cc2ccccc2C1; 3Pal = N[C@@H](Cc1cccnc1)C(=O)O; Tle = CC(C)(C)[C@H](N)C(=O)O

Usually IC50 stands for the concentration at which inhibition is half-maximal. High values mean lower potency, low ones higher potency.

As for `CC(C)[C@@H]1NC(=O)[C@H](CCCCN)NC(=O)[C@@H](Cc2c[nH]c3ccccc23)NC(=O)[C@H](Cc2cccnc2)NC(=O)[C@H](NC(=O)[C@@H](N)Cc2ccc([N+](=O)[O-])cc2)CSSC[C@@H](C(=O)N[C@@H](Cc2ccc(O)cc2)C(N)=O)NC1=O` [Analog No. 39, H2-Npa-D-Cys-Pal-D-Trp-Lys-Val-Cys-Tyr-NH2] (H-[Phe(4-NO2)][dC][3Pal][dW]KVCY-NH2; disulfide 2-7), half-maximal inhibition (IC50) required 34 nM.
`CC(C)[C@@H]1NC(=O)[C@H](CCCCN)NC(=O)[C@@H](Cc2c[nH]c3ccccc23)NC(=O)[C@H](Cc2c[nH]cn2)NC(=O)[C@H](NC(=O)[C@@H](N)Cc2cccc(F)c2)CSSC[C@@H](C(=O)N[C@@H](Cc2cccc(F)c2)C(N)=O)NC1=O` [Analog No. 40, H2-m-F-Phe-D-Cys-His-D-Trp-Lys-Val-Cys-m-F-Phe-NH2] (H-[Phe(3-F)][dC]H[dW]KVC[Phe(3-F)]-NH2; disulfide 2-7) returned an IC50 of 110 nM. This IC50 lies about 3.2-fold higher than the previous one.
In the case of `CC(C)[C@@H]1NC(=O)[C@H](CCCCN)NC(=O)[C@@H](Cc2c[nH]c3ccccc23)NC(=O)[C@H](Cc2c[nH]cn2)NC(=O)[C@H](NC(=O)[C@@H](N)Cc2ccccc2F)CSSC[C@@H](C(=O)N[C@@H](Cc2ccccc2F)C(N)=O)NC1=O` [Analog No. 41, H2-o-F-Phe-D-Cys-His-D-Trp-Lys-Val-Cys-o-F-Phe-NH2] (H-[Phe(2-F)][dC]H[dW]KVC[Phe(2-F)]-NH2; disulfide 2-7), the half-inhibitory concentration (IC50) stood at 210 nM. This IC50 is about 1.9-fold higher than that of the molecule before.
The molecule `CC(C)[C@@H]1NC(=O)[C@H](CCCCN)NC(=O)[C@@H](Cc2c[nH]c3ccccc23)NC(=O)[C@H](Cc2cccnc2)NC(=O)[C@H](NC(=O)[C@@H](N)Cc2ccc3ccccc3c2)CSSC[C@@H](C(=O)N[C@H](C(N)=O)C(c2ccccc2)c2ccccc2)NC1=O` [Analog No. 42, H2-β-Nal-D-Cys-Pal-D-Trp-Lys-Val-Cys-Dip-NH2] (H-[2Nal][dC][3Pal][dW]KVC[Dip]-NH2; disulfide 2-7) came in with an IC50 of 44 nM. Compared with the last molecule, the IC50 is about 4.8-fold lower.
The molecule `CC(C)[C@@H]1NC(=O)[C@H](CCCCN)NC(=O)[C@@H](Cc2c[nH]c3ccccc23)NC(=O)[C@H](Cc2cccnc2)NC(=O)[C@H](NC(=O)[C@@H](N)Cc2ccc(Cl)cc2)CSSC[C@@H](C(=O)N[C@@H](Cc2ccc(Cl)cc2)C(N)=O)NC1=O` [Analog No. 43, H2-Cpa-D-Cys-Pal-D-Trp-Lys-Val-Cys-Cpa-NH2] (H-[Phe(4-Cl)][dC][3Pal][dW]KVC[Phe(4-Cl)]-NH2; disulfide 2-7) registered an IC50 of 0.82 nM.
Take `CC(C)[C@@H]1NC(=O)[C@H](CCCCN)NC(=O)[C@@H](Cc2c[nH]c3ccccc23)NC(=O)[C@H](Cc2cccnc2)NC(=O)[C@H](NC(=O)[C@@H](N)C2Cc3ccccc3C2)CSSC[C@@H](C(=O)N[C@H](C(N)=O)C2Cc3ccccc3C2)NC1=O` [Analog No. 44, H2-Igl-D-Cys-Pal-D-Trp-Lys-Val-Cys-Igl-NH2] (H-[Igl][dC][3Pal][dW]KVC[Igl]-NH2; disulfide 2-7): the IC50 came out at 21 nM. Compared with the last molecule, the IC50 is about 26-fold higher.
The molecule `CC(C)[C@@H]1NC(=O)[C@H](CCCCN)NC(=O)[C@@H](Cc2c[nH]c3ccccc23)NC(=O)[C@H](Cc2cccnc2)NC(=O)[C@H](NC(=O)[C@@H](N)Cc2ccc3ccccc3c2)CSSC[C@@H](C(=O)N[C@@H](C(N)=O)C(c2ccccc2)c2ccccc2)NC1=O` [Analog No. 45, H2-β-Nal-D-Cys-Pal-D-Trp-Lys-Val-Cys-D-Dip-NH2] (H-[2Nal][dC][3Pal][dW]KVC[dDip]-NH2; disulfide 2-7) came in with an IC50 of 130 nM.
Consider `CC(C)[C@@H]1NC(=O)[C@H](CCCCN)NC(=O)[C@@H](Cc2c[nH]c3ccccc23)NC(=O)[C@H](Cc2ccc(O)c(I)c2)NC(=O)[C@H](NC(=O)[C@@H](N)Cc2ccc3ccccc3c2)CSSC[C@@H](C(=O)N[C@@H](Cc2ccc3ccccc3c2)C(N)=O)NC1=O` [Analog No. 46, H2-β-Nal-D-Cys-3-I-Tyr-D-Trp-Lys-Val-Cys-β-Nal-NH2] (H-[2Nal][dC][Tyr(3-I)][dW]KVC[2Nal]-NH2; disulfide 2-7), for which the IC50 came to 20 nM.
`CC(C)[C@@H]1NC(=O)[C@H](CCCCN)NC(=O)[C@@H](Cc2c[nH]c3ccccc23)NC(=O)[C@H](Cc2cccnc2)NC(=O)[C@H](NC(=O)[C@@H](N)Cc2ccc(C#N)cc2)CSSC[C@@H](C(=O)N[C@@H](Cc2ccc(C#N)cc2)C(N)=O)NC1=O` [Analog No. 47, H2-p-CN-Phe-D-Cys-Pal-D-Trp-Lys-Val-Cys-p-CN-Phe-NH2] (H-[Phe(4-CN)][dC][3Pal][dW]KVC[Phe(4-CN)]-NH2; disulfide 2-7): inhibition was half-maximal at 53 nM (IC50). This IC50 is about 2.6-fold higher than that of the molecule before.
Consider `CC(C)[C@@H]1NC(=O)[C@H](CCCCN)NC(=O)[C@@H](Cc2c[nH]c3ccccc23)NC(=O)[C@H](Cc2ccc(O)cc2)NC(=O)[C@H](NC(=O)[C@@H](N)Cc2ccc3ccccc3c2)CSSC[C@@H](C(=O)N[C@@H](C(N)=O)C(c2ccccc2)c2ccccc2)NC1=O` [Analog No. 48, H2-β-Nal-D-Cys-Tyr-D-Trp-Lys-Val-Cys-D-Dip-NH2] (H-[2Nal][dC]Y[dW]KVC[dDip]-NH2; disulfide 2-7), for which it took 50 nM to reach half-maximal inhibition (IC50).
Regarding `CC(C)[C@@H]1NC(=O)[C@H](CCCCN)NC(=O)[C@@H](Cc2c[nH]c3ccccc23)NC(=O)[C@H](Cc2csc3ccccc23)NC(=O)[C@H](NC(=O)[C@@H](N)Cc2ccc3ccccc3c2)CSSC[C@@H](C(=O)N[C@@H](Cc2ccc3ccccc3c2)C(N)=O)NC1=O` [Analog No. 49, H2-β-Nal-D-Cys-Bta-D-Trp-Lys-Val-Cys-β-Nal-NH2] (H-[2Nal][dC][Bta][dW]KVC[2Nal]-NH2; disulfide 2-7), 230 nM corresponded to half-maximal inhibition (IC50). Against the preceding molecule, the IC50 is about 4.6-fold higher.
Regarding `CC(C)(C)[C@@H]1NC(=O)[C@H](CCCCN)NC(=O)[C@@H](Cc2c[nH]c3ccccc23)NC(=O)[C@H](Cc2cccnc2)NC(=O)[C@H](NC(=O)[C@@H](N)Cc2ccc(F)cc2)CSSC[C@@H](C(=O)N[C@@H](Cc2ccc3ccccc3c2)C(N)=O)NC1=O` [Analog No. 50, H2-p-F-Phe-D-Cys-Pal-D-Trp-Lys-Tle-Cys-β-Nal-NH2] (H-[Phe(4-F)][dC][3Pal][dW]K[Tle]C[2Nal]-NH2; disulfide 2-7), the half-inhibitory concentration (IC50) is 1.1 nM.
Turning to `CC(C)(C)[C@@H]1NC(=O)[C@H](CCCCN)NC(=O)[C@@H](Cc2c[nH]c3ccccc23)NC(=O)[C@H](Cc2cccnc2)NC(=O)[C@H](NC(=O)[C@H](N)Cc2ccc(F)cc2)CSSC[C@@H](C(=O)N[C@@H](Cc2ccc3ccccc3c2)C(N)=O)NC1=O` [Analog No. 51, H2-D-p-F-Phe-D-Cys-Pal-D-Trp-Lys-Tle-Cys-β-Nal-NH2] (H-[dPhe(4-F)][dC][3Pal][dW]K[Tle]C[2Nal]-NH2; disulfide 2-7), it took 12 nM to reach half-maximal inhibition (IC50).
As for `CC(C)[C@@H]1NC(=O)[C@H](CCCCN)NC(=O)[C@@H](Cc2c[nH]c3ccccc23)NC(=O)[C@H](Cc2cccnc2)NC(=O)[C@H](NC(=O)[C@@H](N)Cc2ccc(Br)cc2)CSSC[C@@H](C(=O)N[C@@H](Cc2ccc(Br)cc2)C(N)=O)NC1=O` [Analog No. 52, H2-Bpa-D-Cys-Pal-D-Trp-Lys-Val-Cys-Bpa-NH2] (H-[Phe(4-Br)][dC][3Pal][dW]KVC[Phe(4-Br)]-NH2; disulfide 2-7), the concentration for half-maximal inhibition (IC50) turned out to be 2.6 nM.
Consider `CC(C)[C@@H]1NC(=O)[C@H](CCCCN)NC(=O)[C@@H](Cc2c[nH]c3ccccc23)NC(=O)[C@H](Cc2cccnc2)NC(=O)[C@H](NC(=O)[C@@H](N)Cc2ccc(I)cc2)CSSC[C@@H](C(=O)N[C@@H](Cc2ccc(I)cc2)C(N)=O)NC1=O` [Analog No. 53, H2-Iph-D-Cys-Pal-D-Trp-Lys-Val-Cys-Iph-NH2] (H-[Phe(4-I)][dC][3Pal][dW]KVC[Phe(4-I)]-NH2; disulfide 2-7), for which the IC50 amounted to 2.9 nM.

The values are drawn from patent publication US9133262B2, “Somatostatin antagonists” (Ipsen Pharma S.A.S., priority 1996, dated 2015).
